The source of these data is paper PMC8689225, “Cardiac ryanodine receptor N-terminal region biosensors identify novel inhibitors via FRET-based high-throughput screening” (The Journal of Biological Chemistry, 2021).

The target of the test is T1, RyR2 (Sus scrofa, UniProt A0A5G2R1W3).
T1 construct: from tissue; host or cells: porcine cardiac left ventricle, crude SR vesicles
Kind of test: [3H]ryanodine binding to cardiac SR (CSR) vesicles. In kind it is biochemical, pig. The procedure: Crude sarcoplasmic reticulum membrane vesicles were isolated from porcine longissimus dorsi muscle and porcine cardiac left ventricle tissue by differential centrifugation of homogenized tissue, as established previously ([65]). Skeletal heavy SR (HSR) vesicles, which are enriched with RyR1, were isolated by fractionation of crude skeletal SR vesicles using a discontinuous sucrose gradient, in accordance with our published work ([65]). All vesicles were flash-frozen and stored at −80 °C.
In 96-well plates, skeletal SR membranes (HSR, 1 mg/ml) and cardiac SR membranes (CSR, 3 mg/ml) were preincubated with 1% DMSO or hit compound for 30 min at 22 °C in a solution containing 150 mM KCl, 5 mM GSH, 1 μg/ml Aprotinin/Leupeptin, 1 mM EGTA, and 65 μM or 1.02 mM CaCl2 (as determined by MaxChelator to yield 30 nM or 30 μM of free Ca^2+, respectively), 0.1 mg/ml of BSA, and 20 mM K-PIPES (pH 7.0). Nonspecific [^3H]ryanodine binding to SR was assessed by addition of 40 μM nonradioactively labeled ryanodine. Maximal [^3H]ryanodine binding was assessed by addition of 5 mM adenylyl-imidodiphosphate (AMP-PNP), and in the case of CSR, 20 mM caffeine was added. These control samples were each loaded over four wells per plate. Binding of [^3H]ryanodine (7.5 and 10 nM for CSR and HSR, respectively) was determined following a 3 h incubation at 37 °C and filtration through grade GF/B glass microfiber filters (Brandel Inc) using a Brandel Harvester. In 4 ml of Ecolite scintillation cocktail (MP biomedicals), [^3H]ryanodine retained on the filter was counted using a Beckman LS6000 scintillation counter.

T1 sequence (A0A5G2R1W3 20-4900): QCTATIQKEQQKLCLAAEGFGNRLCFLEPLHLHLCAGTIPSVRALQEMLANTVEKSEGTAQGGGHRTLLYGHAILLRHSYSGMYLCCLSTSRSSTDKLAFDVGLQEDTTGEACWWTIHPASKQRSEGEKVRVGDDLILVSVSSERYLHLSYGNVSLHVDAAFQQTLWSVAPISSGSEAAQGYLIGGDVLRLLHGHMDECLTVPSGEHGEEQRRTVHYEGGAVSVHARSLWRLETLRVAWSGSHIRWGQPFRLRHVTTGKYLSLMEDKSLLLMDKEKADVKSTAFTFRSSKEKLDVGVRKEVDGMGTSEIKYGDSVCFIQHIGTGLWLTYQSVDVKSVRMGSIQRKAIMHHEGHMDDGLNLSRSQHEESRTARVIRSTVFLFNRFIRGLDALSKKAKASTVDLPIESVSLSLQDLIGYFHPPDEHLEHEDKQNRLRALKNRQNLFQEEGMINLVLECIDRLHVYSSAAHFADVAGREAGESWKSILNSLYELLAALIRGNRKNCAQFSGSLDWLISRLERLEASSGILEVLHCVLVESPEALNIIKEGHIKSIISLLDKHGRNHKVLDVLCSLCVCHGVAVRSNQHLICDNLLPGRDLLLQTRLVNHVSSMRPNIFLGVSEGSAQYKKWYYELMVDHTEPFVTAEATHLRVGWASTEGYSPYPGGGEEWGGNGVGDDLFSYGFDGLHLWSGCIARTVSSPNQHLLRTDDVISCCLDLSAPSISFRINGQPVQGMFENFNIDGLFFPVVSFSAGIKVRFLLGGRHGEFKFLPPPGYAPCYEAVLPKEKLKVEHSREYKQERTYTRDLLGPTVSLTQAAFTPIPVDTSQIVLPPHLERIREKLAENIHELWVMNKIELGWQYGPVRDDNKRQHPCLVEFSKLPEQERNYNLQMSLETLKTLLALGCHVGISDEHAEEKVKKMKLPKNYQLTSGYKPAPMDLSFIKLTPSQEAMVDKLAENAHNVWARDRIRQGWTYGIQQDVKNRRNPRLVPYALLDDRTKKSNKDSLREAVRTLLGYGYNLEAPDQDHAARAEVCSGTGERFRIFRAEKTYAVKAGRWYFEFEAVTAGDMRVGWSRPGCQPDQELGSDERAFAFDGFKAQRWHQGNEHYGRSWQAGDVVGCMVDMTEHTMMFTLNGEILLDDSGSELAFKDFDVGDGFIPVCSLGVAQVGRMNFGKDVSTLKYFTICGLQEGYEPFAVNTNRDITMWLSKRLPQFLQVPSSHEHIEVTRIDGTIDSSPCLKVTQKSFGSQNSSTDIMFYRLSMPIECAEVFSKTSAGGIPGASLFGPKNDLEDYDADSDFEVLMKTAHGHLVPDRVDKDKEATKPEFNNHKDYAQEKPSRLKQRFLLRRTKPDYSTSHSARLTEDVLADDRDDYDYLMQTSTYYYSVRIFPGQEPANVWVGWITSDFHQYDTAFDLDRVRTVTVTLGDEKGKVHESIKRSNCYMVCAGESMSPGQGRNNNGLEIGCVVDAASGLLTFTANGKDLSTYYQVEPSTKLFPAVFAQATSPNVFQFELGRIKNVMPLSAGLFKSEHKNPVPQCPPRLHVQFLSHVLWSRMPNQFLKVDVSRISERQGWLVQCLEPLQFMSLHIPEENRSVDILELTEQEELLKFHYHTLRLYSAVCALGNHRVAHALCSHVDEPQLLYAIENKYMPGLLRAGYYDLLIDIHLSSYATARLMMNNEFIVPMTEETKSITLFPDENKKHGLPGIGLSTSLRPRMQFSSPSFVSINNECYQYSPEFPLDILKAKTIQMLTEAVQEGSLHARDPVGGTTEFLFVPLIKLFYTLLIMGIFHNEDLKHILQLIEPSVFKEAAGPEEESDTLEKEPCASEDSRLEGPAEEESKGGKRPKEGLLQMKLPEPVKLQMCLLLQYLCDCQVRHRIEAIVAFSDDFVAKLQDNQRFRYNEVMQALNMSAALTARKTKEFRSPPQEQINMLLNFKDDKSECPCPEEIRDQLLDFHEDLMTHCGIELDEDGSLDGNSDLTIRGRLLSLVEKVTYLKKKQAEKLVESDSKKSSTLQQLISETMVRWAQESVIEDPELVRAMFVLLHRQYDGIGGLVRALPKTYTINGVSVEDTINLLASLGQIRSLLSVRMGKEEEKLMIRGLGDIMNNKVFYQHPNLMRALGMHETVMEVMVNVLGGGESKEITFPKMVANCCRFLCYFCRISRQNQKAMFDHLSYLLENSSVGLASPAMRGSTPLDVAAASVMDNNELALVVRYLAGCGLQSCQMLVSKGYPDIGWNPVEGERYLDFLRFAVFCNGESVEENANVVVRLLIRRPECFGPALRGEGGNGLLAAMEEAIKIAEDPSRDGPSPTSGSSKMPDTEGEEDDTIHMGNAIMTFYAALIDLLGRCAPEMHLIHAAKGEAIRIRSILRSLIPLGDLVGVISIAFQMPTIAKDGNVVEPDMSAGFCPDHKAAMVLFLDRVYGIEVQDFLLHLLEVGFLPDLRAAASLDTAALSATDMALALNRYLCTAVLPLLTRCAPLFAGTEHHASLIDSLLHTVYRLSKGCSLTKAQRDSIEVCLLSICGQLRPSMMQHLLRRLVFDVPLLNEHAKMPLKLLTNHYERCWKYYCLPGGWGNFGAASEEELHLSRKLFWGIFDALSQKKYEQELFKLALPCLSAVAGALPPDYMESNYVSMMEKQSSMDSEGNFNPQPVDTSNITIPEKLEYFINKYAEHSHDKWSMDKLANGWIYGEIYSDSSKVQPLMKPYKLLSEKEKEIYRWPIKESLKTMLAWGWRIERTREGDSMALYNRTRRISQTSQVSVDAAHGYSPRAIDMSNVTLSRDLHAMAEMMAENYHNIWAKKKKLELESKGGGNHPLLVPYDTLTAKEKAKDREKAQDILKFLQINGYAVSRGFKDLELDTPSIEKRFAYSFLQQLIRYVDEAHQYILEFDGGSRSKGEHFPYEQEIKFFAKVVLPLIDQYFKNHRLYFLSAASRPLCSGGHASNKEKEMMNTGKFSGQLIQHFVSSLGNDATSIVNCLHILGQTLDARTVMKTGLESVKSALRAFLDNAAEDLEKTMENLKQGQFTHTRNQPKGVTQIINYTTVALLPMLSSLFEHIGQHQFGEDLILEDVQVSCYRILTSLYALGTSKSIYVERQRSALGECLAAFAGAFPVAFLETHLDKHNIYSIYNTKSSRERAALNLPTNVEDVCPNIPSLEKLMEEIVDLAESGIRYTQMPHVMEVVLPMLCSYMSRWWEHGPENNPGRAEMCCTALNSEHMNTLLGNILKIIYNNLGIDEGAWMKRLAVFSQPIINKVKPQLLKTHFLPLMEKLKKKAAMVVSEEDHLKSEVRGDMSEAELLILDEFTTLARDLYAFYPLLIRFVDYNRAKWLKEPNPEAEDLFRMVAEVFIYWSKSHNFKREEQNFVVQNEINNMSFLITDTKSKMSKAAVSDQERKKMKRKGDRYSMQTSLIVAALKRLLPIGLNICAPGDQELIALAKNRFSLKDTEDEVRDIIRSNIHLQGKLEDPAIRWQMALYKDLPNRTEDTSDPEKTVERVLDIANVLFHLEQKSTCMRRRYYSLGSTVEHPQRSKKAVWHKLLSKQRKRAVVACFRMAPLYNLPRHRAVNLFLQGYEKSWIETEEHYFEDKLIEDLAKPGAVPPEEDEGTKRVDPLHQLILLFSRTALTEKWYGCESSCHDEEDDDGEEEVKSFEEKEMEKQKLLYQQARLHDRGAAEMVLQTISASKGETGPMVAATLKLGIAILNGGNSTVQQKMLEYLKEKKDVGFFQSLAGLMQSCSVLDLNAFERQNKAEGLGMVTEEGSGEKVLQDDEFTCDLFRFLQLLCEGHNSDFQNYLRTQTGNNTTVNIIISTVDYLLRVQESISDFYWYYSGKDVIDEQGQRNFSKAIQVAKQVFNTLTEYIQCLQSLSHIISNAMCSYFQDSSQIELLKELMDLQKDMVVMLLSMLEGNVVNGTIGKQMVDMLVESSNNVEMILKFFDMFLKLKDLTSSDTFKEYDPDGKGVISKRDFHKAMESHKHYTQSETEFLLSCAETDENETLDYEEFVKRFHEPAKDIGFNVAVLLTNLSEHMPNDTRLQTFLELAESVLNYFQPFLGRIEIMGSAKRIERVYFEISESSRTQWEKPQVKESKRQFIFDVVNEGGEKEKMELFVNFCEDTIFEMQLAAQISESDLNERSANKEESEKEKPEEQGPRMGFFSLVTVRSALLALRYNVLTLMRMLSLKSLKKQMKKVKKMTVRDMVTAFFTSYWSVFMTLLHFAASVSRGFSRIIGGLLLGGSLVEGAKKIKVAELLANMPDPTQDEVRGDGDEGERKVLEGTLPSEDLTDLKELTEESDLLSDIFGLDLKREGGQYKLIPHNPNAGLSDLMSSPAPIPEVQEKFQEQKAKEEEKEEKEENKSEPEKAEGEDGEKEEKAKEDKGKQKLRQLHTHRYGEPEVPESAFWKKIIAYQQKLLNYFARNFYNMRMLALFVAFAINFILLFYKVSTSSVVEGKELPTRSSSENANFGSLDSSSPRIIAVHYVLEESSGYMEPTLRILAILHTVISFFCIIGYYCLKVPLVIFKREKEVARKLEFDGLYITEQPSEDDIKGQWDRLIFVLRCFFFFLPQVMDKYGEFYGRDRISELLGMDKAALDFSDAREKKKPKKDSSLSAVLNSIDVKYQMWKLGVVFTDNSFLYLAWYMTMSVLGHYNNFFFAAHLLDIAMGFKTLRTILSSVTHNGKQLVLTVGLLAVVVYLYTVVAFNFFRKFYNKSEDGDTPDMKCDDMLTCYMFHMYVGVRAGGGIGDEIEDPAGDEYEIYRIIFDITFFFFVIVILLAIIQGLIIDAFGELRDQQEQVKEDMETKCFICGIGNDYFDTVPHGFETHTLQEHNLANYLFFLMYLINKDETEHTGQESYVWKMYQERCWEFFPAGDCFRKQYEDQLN

Turning to `CC(=O)O[C@H]1C[C@@]2(C)[C@@H](C[C@@H](O)[C@H]3[C@@]4(C)CC[C@@H](O)[C@@H](C)[C@@H]4CC[C@@]32C)/C1=C(\CCC=C(C)C)C(=O)O` [FA, (2Z)-2-[(3R,4S,5S,8S,9S,10S,11R,13R,14S,16S)-16-acetyloxy-3,11-dihydroxy-4,8,10,14-tetramethyl-2,3,4,5,6,7,9,11,12,13,15,16-dodecahydro-1H-cyclopenta[a]phenanthren-17-ylidene]-6-methylhept-5-enoic acid], for the setting “[Ca2+] 30 nM, Table S4, read-out: EC50, [3H]ryanodine binding, cardiac SR”, the EC50 came to 1700 nM. Besides, the “effect on [3H]ryanodine binding to RyR2” value (cardiac SR, 30 μM Ca2+) is recorded as “slight activation at high concentrations”.

One may read the EC50 as the concentration needed to bring the measured effect to its halfway point.
